Results from patent US5900231A, “Silicone-containing derivatives of salicylic acid which have desquamating properties” (L'Oreal, priority 1996, dated 1999).

How the values were obtained:
keratinocytes = test: in vitro test of the efficacy of the desquamation on keratinocytes (release of corneocytes, flow cytometry); type: cell-based; details: for cell detachment index (difference between T60 and T0; release of corneocytes relative to control): 60 minutes after addition, relative to control without test product, equal concentrations; for desquamating activity compared with 5-n-octanoylsalicylic acid: at a concentration equal to that of 5-n-octanoylsalicylic acid
Protocol: An in vitro test of the efficacy of the desquamation was carried out on keratinocytes using 5-n-octanoylsalicylic acid (compound C1), 2-hydroxy4-(3-trimethylsilanylpropyloxy)benzoic acid (compound C2) and 2-hydroxy-5-(3-trimethylsilanylpropyloxy)benzoic acid (compound C3). C1 is a known powerful desquamating active agent, but not part of the present invention. C2 and C3 are compounds of the present invention.
The principle of the test rests on the fact that desquamation is known to induce the release of corneocytes. The desquamating power of the test product should be proportionately greater the larger the number of corneocytes released.
The test procedure was as follows: keratinocytes were obtained by separating the epidermis from skin biopsies, and these keratinocytes were dissociated by enzymatic action with trypsin and cultured at a concentration of 2×10^5 cells/ml. Growth and differentiation of the keratinocytes were obtained by culturing for 10 to 20 days in specific medium.
Next, after removing the culture medium, the test product was added and the activity of the product evaluated. To do this, two samples were taken at T0 and T60, i.e., before addition of the product and 60 minutes after this addition, and the samples thus taken were analysed on a flow cytometer to count the population of corneocytes.
The cell detachment index was determined by the difference between T60 and T0.
The same measurement was taken for a control containing no test product since the experiment inevitably produces the release of corneocytes, even in the absence of active agent. The variation of the control arbitrarily set the standard at 100%.

[1] = solubility in MIGLYOL 812 (mixture of caprylic acid and capric acid triglyceride); type: physicochemical
Protocol: The solubility of the silicon-containing derivatives of salicylic acid according to the invention in organic media was evaluated by comparing the solubility of 5-n-octanoylsalicylic acid with inventive compounds:
in a mixture of caprylic acid and capric acid triglyceride, marketed under the name MIGLYOL 812 by the company Huls.

Structure (SMILES)	cell detachment index (difference between T60 and T0; release of corneocytes relative to control) (keratinocytes)	Solubility at room temperature [1]	desquamating activity compared with 5-n-octanoylsalicylic acid (keratinocytes)
CCCCCCCC(=O)c1ccc(O)c(C(=O)O)c1 [Compound C1, 5-n-octanoylsalicylic acid, reference compound]	103%	< 1.5%	
C[Si](C)(C)CCCOc1ccc(C(=O)O)c(O)c1 [Compound C2, 2-hydroxy-4-(3-trimethylsilanylpropyloxy)benzoic acid]	157%	2%	much more active than the latter
C[Si](C)(C)CCCOc1ccc(O)c(C(=O)O)c1 [Compound C3, 2-hydroxy-5-(3-trimethylsilanylpropyloxy)benzoic acid]	135%	7%	much more active than the latter
CC(COc1ccc(C(=O)O)c(O)c1)C[Si](C)(O[Si](C)(C)C)O[Si](C)(C)C (stereo not shown) [Compound C4, 2-hydroxy-4-[2-methyl-3-[1,3,3,3-tetramethyl-1-[(trimethyl-silyl)oxy]disiloxanyl]propyloxy]benzoic acid]		6%	
CC(Cc1cccc(C(=O)O)c1O)C[Si](C)(O[Si](C)(C)C)O[Si](C)(C)C (stereo not shown) [Compound C5, 2-hydroxy-3-[2-methyl-3-[1,3,3,3-tetramethyl-1-[(trimethylsilyl)oxy]disiloxanyl]propyl]benzoic acid]		> 20%	
